The experiment concerns the target Caspase-3 (Homo sapiens) + Caspase-9 (Homo sapiens) (UniProt P42574+P55211). Kind of experiment: inhibition of LZ-caspase-9 coupled caspase-3 activity – biochemical, fluorescence, selectivity assay for Apaf-1 inhibitor project, SAR follow-up (AID 588577). The note with it: recombinant LZ-caspase-9 activating caspase-3, fluorogenic substrate.

Active and inactive are the calls of the source. No rule for the calls is given here.

Caspase-3 (Homo sapiens) + Caspase-9 (Homo sapiens), sequence (P42574 whole entry, looked up): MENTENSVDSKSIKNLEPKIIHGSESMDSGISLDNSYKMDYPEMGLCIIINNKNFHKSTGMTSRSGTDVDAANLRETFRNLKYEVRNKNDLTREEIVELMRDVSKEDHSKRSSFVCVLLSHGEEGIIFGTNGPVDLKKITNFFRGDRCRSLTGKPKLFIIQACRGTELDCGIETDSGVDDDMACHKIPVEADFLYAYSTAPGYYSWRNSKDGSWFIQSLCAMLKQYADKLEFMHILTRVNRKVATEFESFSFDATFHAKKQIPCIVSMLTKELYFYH
Caspase-3 (Homo sapiens) + Caspase-9 (Homo sapiens), sequence (P55211 whole entry, looked up): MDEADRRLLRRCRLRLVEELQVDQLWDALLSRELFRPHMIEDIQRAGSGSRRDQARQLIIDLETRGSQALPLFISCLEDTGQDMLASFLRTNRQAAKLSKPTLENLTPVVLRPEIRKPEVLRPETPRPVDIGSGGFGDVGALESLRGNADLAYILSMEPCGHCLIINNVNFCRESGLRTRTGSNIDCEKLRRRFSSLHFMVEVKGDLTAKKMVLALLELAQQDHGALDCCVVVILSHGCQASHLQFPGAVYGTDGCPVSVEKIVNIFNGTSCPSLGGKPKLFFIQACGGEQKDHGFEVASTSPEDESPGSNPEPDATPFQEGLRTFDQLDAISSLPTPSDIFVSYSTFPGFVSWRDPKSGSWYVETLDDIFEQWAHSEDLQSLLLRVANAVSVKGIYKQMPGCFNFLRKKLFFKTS

A word on the IC50: it is the midpoint of a concentration-inhibition curve. For the compound `CC(=O)c1ccc(C(=O)Nc2ccc3nc(C)[nH]c3c2)s1`, the IC50 was > 100 µM (inactive).
As to `CCN(CC)CCOC(=O)c1ccc(N/C=C(\C#N)c2nc(-c3cccs3)cs2)cc1`, the IC50 was > 100 µM (inactive).
On to `CCN(CC)CCOC(=O)c1ccc(N/C=C(/C#N)c2nc(-c3cc4ccccc4oc3=O)cs2)cc1`, for which the IC50 was > 100 µM (inactive).
As for `Cn1cc(C(CC(=O)c2ccc(C(C)(C)C)cc2)C(=O)O)c2ccccc21` (stereo not given), the IC50 was 85.3 µM.
On to `CCN(CC)CCOC(=O)c1ccc(N/C=C(/C#N)c2nc(-c3ccc(OC)c(OC)c3)cs2)cc1`, for which the IC50 was > 100 µM (inactive).
The result for `CCN(CC)CCOC(=O)c1ccc(N/C=C(\C#N)c2nc(-c3ccc(Cl)c(Cl)c3)cs2)cc1` reads 72 µM; that for `CCN(CC)CCOC(=O)c1ccc(N/C=C(/C#N)c2nc(-c3ccc(OC)cc3)cs2)cc1`, > 100 µM (inactive).
For `COc1ccc(N2C(=O)CC3(CC(c4ccc(F)cc4)=NO3)C2=O)cc1` (stereo not given), the 50% inhibitory concentration (IC50) is 37.5 µM.
On to `O=C(Nc1ccc2c(c1)C(=O)NC2=O)c1nc2ccccc2s1`, for which the IC50 was > 100 µM (inactive).
With `O=C(Nc1ccc2nc(-c3cccs3)[nH]c2c1)c1cccs1`, the IC50 is > 100 µM (inactive).
The result for `Cn1cc(C(CC(=O)c2ccc(C3CCCCC3)cc2)C(=O)O)c2ccccc21` (stereo not given) reads 98.8 µM; that for `O=C(Nc1ccc(-c2nc3ccc(NC(=O)c4cccs4)cc3[nH]2)cc1)c1cccs1`, > 100 µM (inactive); that for `CCN(CC)CCOC(=O)c1ccc(N/C=C(\C#N)c2nc(-c3ccc(Br)cc3)cs2)cc1`, > 100 µM (inactive).
Turning to `CCN(CC)CCOC(=O)c1ccc(N/C=C(/C#N)c2nc(-c3ccc4c(c3)OCO4)cs2)cc1`, the IC50 is > 100 µM (inactive).
As to `Cc1cc(NC(=O)C2CC2)sc1C(=O)Nc1ccc2nc(-c3cc(F)ccc3F)[nH]c2c1`, the 50% inhibitory concentration (IC50) was 89.7 µM.
On to `O=C(Nc1ccc2nc(-c3ccc(Br)o3)[nH]c2c1)c1cccs1`, for which the IC50 was > 100 µM (inactive).
On to `Cc1ccc2c(c1)C(=O)c1nc3ccccc3c(=O)n1-2`, for which the IC50 is > 100 µM (inactive).
For the compound `O=C1c2cc(Cl)ccc2-n2c1nc1ccccc1c2=O`, the half-inhibitory concentration (IC50) was 89.6 µM.
The result for `Cc1ccc(-c2nc3ccc(NC(=O)c4cccs4)cc3[nH]2)o1` reads > 100 µM (inactive).
On to `Cc1nc2ccc(-c3nc4ccc(NC(=O)c5cccs5)cc4[nH]3)cc2[nH]1`, for which the IC50 is > 100 µM (inactive).

The record behind these values is PubChem BioAssay AID588577 (Sanford-Burnham Center for Chemical Genomics, 2011).
